From patent US10189785B2, “Heterocyclic compound” (TAKEDA PHARMACEUTICAL COMPANY LIMITED, priority 2015, dated 2019)

Columns and labels:
[1] = target: T1, SPT (SPT2-expressing membrane fraction: human SPT1, human SPT2 and human ssSPTa) (Homo sapiens, UniProt O15269+O15270); test: SPT enzyme inhibition test (Test Example 1); type: biochemical; conditions: read-out: Rate of inhibition (%) at 1 μM
T1 construct: Full-length human SPT1, human SPT2 and human ssSPTa used; made in house; host or cells: FreeStyle 293 cells (pcDNA3.1 vectors, cotransfection); crude membrane fraction used
T1 sequence (O15269 1-473): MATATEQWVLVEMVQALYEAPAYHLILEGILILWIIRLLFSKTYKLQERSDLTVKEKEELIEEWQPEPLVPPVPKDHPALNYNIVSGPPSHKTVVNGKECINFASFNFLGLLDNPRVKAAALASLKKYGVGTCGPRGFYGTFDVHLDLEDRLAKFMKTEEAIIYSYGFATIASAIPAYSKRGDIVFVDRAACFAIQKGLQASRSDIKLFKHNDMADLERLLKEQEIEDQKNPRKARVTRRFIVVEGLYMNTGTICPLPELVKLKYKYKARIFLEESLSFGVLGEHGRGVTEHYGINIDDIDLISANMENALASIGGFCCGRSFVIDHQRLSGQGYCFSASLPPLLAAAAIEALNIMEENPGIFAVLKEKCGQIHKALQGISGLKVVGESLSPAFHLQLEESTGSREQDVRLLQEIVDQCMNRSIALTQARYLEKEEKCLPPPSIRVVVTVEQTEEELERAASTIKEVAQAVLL
T1 sequence (O15270 1-562): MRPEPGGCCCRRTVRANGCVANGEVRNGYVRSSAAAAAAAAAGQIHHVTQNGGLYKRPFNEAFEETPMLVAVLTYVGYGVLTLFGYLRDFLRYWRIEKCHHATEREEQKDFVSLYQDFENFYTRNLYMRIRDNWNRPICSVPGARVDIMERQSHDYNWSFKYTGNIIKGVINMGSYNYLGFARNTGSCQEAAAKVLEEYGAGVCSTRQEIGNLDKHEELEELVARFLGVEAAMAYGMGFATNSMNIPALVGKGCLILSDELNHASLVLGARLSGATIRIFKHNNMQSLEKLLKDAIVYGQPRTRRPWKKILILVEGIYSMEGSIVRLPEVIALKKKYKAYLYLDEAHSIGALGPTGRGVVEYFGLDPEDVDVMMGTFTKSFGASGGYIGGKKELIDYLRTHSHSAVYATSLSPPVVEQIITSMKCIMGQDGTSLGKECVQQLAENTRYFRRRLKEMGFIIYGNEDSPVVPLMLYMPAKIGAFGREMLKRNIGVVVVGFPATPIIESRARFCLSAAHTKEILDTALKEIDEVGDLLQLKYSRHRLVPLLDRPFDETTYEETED
T1 sequence (Q969W0 1-71 partner): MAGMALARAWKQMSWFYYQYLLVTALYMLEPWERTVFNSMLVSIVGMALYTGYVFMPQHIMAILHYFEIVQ
Method in brief: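 Membrane fraction (100 μg/mL stock) of cells expressing human SPT1, SPT2 and ssSPTa was preincubated 60 min at RT with compound in 100 mM Hepes pH 8.0 containing EDTA, DTT and 0.01% BSA. Reaction ran 15 min at RT with 2 mM L-serine and 20 μM palmitoyl CoA (solution concentrations), then formic acid quench. Product measured by RapidFire mass spectrometry against a C17-sphinganine internal standard, giving % inhibition.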

[2] = tested on: lung adenocarcinoma cell line HCC4006; test: HCC4006 cell growth inhibition test (Test Example 2); type: cell-based; conditions: Homo sapiens, 120 h; 1 μM test compound; HCC4006 cells, culture for 5 days, CellTiter-Glo; read-out: Rate of inhibition (%) at 1 μM
Method: A lung adenocarcinoma cell line HCC4006 (ATCC) was cultured using an RPMI-1640 medium (Wako Pure Chemical Industries, Ltd.) containing 10% fetal bovine serum and penicillin/streptomycin. 250 cells per well were inoculated into 40 μL of a medium in a 384-well culture plate. On the next day, 10 μL of each test compound was added to the cells. After culture for 5 days, the medium was discarded, and 30 μL of CellTiter-Glo Luminescent Cell Viability Assay solution (Promega Corp., Fitchburg, Wis., U.S.) was added to each well. Light emission signals were measured using EnVision (PerkinElmer, Inc., Waltham, Mass., U.S.).
The rate of inhibition (%) by the test compound was calculated according to the following expression: Rate of inhibition (%)=(1−(Count of the test compound−Blank)/(Control−Blank))×100
In the above expression, a count under compound non-addition conditions was indicated as a control, and a count under cell-free conditions was indicated as a blank.

| Compound | inhibition at 1 µM [1] [%] | inhibition at 1 µM [2] [%] |
| --- | --- | --- |
| COc1cc(C(=O)N2CC[C@@H](NC(=O)c3cccnc3C(F)(F)F)[C@@H](c3ccccc3)C2)cnc1OC [Example 140B, N-((3S,4R)-1-((5,6-dimethoxypyridin-3-yl)carbonyl)-3-phenylpiperidin-4-yl)-2-(trifluoromethyl)nicotinamide] | 101 | 49 |
| COc1cc(C(=O)N2CC[C@@H](NC(=O)c3ccccc3S(C)(=O)=O)[C@@H](c3ccccc3)C2)cnc1OC [Example 141B, N-((3S,4R)-1-((5,6-dimethoxypyridin-3-yl)carbonyl)-3-phenylpiperidin-4-yl)-2-(methylsulfonyl)benzamide] | 101 | 52 |
| COc1cc(C(=O)N2CC[C@@H](NC(=O)c3cnn(C)c3Cl)[C@@H](c3ccccc3)C2)cnc1OC [Example 150B, 5-chloro-N-((3S,4R)-1-((5,6-dimethoxypyridin-3-yl)carbonyl)-3-phenylpiperidin-4-yl)-1-methyl-1H-pyrazole-4-carboxamide] | 101 | 47 |
| COc1cc(C(=O)N2CC[C@@H](NC(=O)c3cc(C)nn3C)[C@@H](c3ccccc3)C2)cnc1OC [Example 151B, N-((3S,4R)-1-((5,6-dimethoxypyridin-3-yl)carbonyl)-3-phenylpiperidin-4-yl)-1,3-dimethyl-1H-pyrazole-5-carboxamide] | 99 | 51 |
| COc1cc(C(=O)N2CC[C@@H](NC(=O)c3cn(C)nc3C)[C@@H](c3ccccc3)C2)cnc1OC [Example 152B, N-((3S,4R)-1-((5,6-dimethoxypyridin-3-yl)carbonyl)-3-phenylpiperidin-4-yl)-1,3-dimethyl-1H-pyrazole-4-carboxamide] | 96 | 33 |
| CCn1ncc2c1C(NC(=O)c1ccc(Cl)cc1C(F)(F)F)CCN2C(=O)c1cnc(OC)c(OC)c1 (centres unmarked) [Example 153A, 4-Chloro-N-(4-((5,6-dimethoxypyridin-3-yl)carbonyl)-1-ethyl-4,5,6,7-tetrahydro-1H-pyrazolo[4,3-b]pyridin-7-yl)-2-(trifluoromethyl)benzamide] | 101 | 53 |
| CCn1ncc2c1C(NC(=O)c1ccccc1OC(F)(F)F)CCN2C(=O)c1cnc(OC)c(OC)c1 (centres unmarked) [Example 155A, N-(4-((5,6-Dimethoxypyridin-3-yl)carbonyl)-1-ethyl-4,5,6,7-tetrahydro-1H-pyrazolo[4,3-b]pyridin-7-yl)-2-(trifluoromethoxy)benzamide] | 103 | 53 |
| CCn1ncc2c1[C@@H](NC(=O)c1ccc(Cl)cc1C(F)(F)F)CCN2C(=O)c1cnc(OC)c(OC)c1 [Example 165A, 4-Chloro-N-((7S)-4-((5,6-dimethoxypyridin-3-yl)carbonyl)-1-ethyl-4,5,6,7-tetrahydro-1H-pyrazolo[4,3-b]pyridin-7-yl)-2-(trifluoromethyl)benzamide] | 101 | 52 |
| Cc1nn(C)c(Cl)c1C(=O)N[C@@H]1CCN(C(=O)c2cc(Cl)c3nccnc3c2)C[C@@H]1c1ccccc1 [Example 166B, 5-Chloro-N-((3S,4R)-1-((8-chloroquinoxalin-6-yl)carbonyl)-3-phenylpiperidin-4-yl)-1,3-dimethyl-1H-pyrazole-4-carboxamide] | 101 | 53 |
| COc1ncc(C(=O)N2CC[C@H](NC(=O)c3ccc(Cl)cc3C(F)(F)F)c3c2cnn3CC(F)F)cc1Cl [Example 170A, 4-Chloro-N-((7S)-4-((5-chloro-6-methoxypyridin-3-yl)carbonyl)-1-(2,2-difluoroethyl)-4,5,6,7-tetrahydro-1H-pyrazolo[4,3-b]pyridin-7-yl)-2-(trifluoromethyl)benzamide] | 99 | 50 |
| CCOc1cc(C(=O)N[C@@H]2CCN(C(=O)c3cc(Cl)c4nccnc4c3)C[C@@H]2c2ccccc2)n(C)n1 [Example 170B, N-((3S,4R)-1-((8-Chloroquinoxalin-6-yl)carbonyl)-3-phenylpiperidin-4-yl)-3-ethoxy-1-methyl-1H-pyrazole-5-carboxamide] | 100 | 50 |
| COc1cc(C(=O)N2CC[C@H](NC(=O)c3ccccc3OC(F)(F)F)c3c2cnn3C)cnc1OC [Example 171A, N-((7S)-4-((5,6-Dimethoxypyridin-3-yl)carbonyl)-1-methyl-4,5,6,7-tetrahydro-1H-pyrazolo[4,3-b]pyridin-7-yl)-2-(trifluoromethoxy)benzamide] | 101 | 50 |
| CCn1ncc2c1[C@@H](NC(=O)c1ccccc1OC(F)(F)F)CCN2C(=O)c1cnc(OC)c(OC)c1 [Example 178A, N-((7S)-4-((5,6-Dimethoxypyridin-3-yl)carbonyl)-1-ethyl-4,5,6,7-tetrahydro-1H-pyrazolo[4,3-b]pyridin-7-yl)-2-(trifluoromethoxy)benzamide] | 101 | 53 |
| COc1ccc(C(=O)N2CCC(NC(=O)c3ccccc3Cl)c3c2cnn3CCC(C)(C)O)cc1OC (centres unmarked) [Example 186A, 2-chloro-N-(4-(3,4-dimethoxybenzoyl)-1-(3-hydroxy-3-methylbutyl)-4,5,6,7-tetrahydro-1H-pyrazolo[4,3-b]pyridin-7-yl)benzamide] | 101 | 47 |
| COc1cc(C(=O)N2CC[C@@H](NC(=O)c3ncccc3C(F)(F)F)[C@@H](c3ccc(F)cc3)C2)cnc1OC [Example 191B, N-((3S,4R)-1-((5,6-dimethoxypyridin-3-yl)carbonyl)-3-(4-fluorophenyl)piperidin-4-yl)-3-(trifluoromethyl)pyridine-2-carboxamide] | 100 | 47 |
| O=C(N[C@@H]1CCN(C(=O)c2cc(Cl)c3nccnc3c2)C[C@@H]1c1ccccc1)c1ncccc1C(F)(F)F [Example 241B, N-((3S,4R)-1-((8-Chloroquinoxalin-6-yl)carbonyl)-3-phenylpiperidin-4-yl)-3-(trifluoromethyl)pyridine-2-carboxamide] | 101 | 54 |
| O=C(N[C@@H]1CCN(C(=O)c2cc(Cl)c3nccnc3c2)C[C@@H]1c1ccc(F)cc1)c1ncccc1C(F)(F)F [Example 245B, N-((3S,4R)-1-((8-Chloroquinoxalin-6-yl)carbonyl)-3-(4-fluorophenyl)piperidin-4-yl)-3-(trifluoromethyl)pyridine-2-carboxamide] | 100 | 53 |
| O=C(N[C@@H]1CCN(C(=O)c2cc(Cl)c3nccnc3c2)C[C@@H]1c1ccccc1)c1ncccc1Cl [Example 246B, 3-Chloro-N-((3S,4R)-1-((8-chloroquinoxalin-6-yl)carbonyl)-3-phenylpiperidin-4-yl)pyridine-2-carboxamide] | 101 | 55 |
| O=C(N[C@@H]1CCN(C(=O)c2cc(Cl)c3nccnc3c2)C[C@@H]1c1ccccc1)c1ccccc1OC(F)(F)F [Example 254B, N-((3S,4R)-1-((8-chloroquinoxalin-6-yl)carbonyl)-3-phenylpiperidin-4-yl)-2-(trifluoromethoxy)benzamide] | 99 | 55 |
